This is an account of results in US20190375708A1 (VenatoRx Pharmaceuticals, Inc., priority 2018, published 2019).

The subject of data set [1] is HBV replication in HepAD38 cells. As to the kind of experiment: Anti-HBV replication assay in HepAD38 cells (QPCR of extracellular HBV DNA). It is filed as cell-based, HBV (genotype D, serotype ayw). Particulars: Hepatitis B virus, 168 h, 7 days incubation, extracellular HBV DNA by QPCR, read-out: Anti-HBV EC50. The method, boiled down: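 Steps: seed HepAD38 overnight without tetracycline; refresh medium and add 1 log10 serial dilutions ([…]); incubate 7 days at 37 °C; quantify supernatant HBV DNA by QPCR; derive EC50 from a 4-parameter dose-response fit.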

A short description of data set [2]: In vitro cytotoxicity assay (MTT cell viability) in HepG2 cells. It is filed as cell-based, human. Particulars: human. In a few lines: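 HepG2 cells incubated 7 days at 37 °C, 5% CO2 with compounds from 30 μM to 1.0 nM (8 half-log dilutions). Viability read as MTT formazan absorbance at 492 nm, normalised to vehicle controls; CC50 from 4-parameter non-linear regression.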

Regarding `Cc1nc(C2(NC(=O)C(=O)c3c(C)c(C(=O)Nc4ccc(F)c(C)c4)c(C)n3C)CCCC2)no1` [Example 158, N-(4-fluoro-3-methylphenyl)-1,2,4-trimethyl-5-(2-((1-(5-methyl-1,2,4-oxadiazol-3-yl)cyclopentyl)amino)-2-oxoacetyl)-1H-pyrrole--3 carboxamide], in data set [1], the EC50 (in general, the midpoint of the concentration-response curve) is < 50 nM. For the same compound, the 50% cytotoxic concentration (CC50) (as a rule, the concentration that lowers cell viability or growth by half) at 7 days in data set [2] was > 30000 nM.
For `Cc1cc(NC(=O)c2c(C)c(C(=O)C(=O)N[C@H](C(=O)O)[C@H](C)O)n(C)c2C)ccc1F` [Example 51, (2-(4-((4-fluoro-3-methylphenyl)carbamoyl)-1,3,5-trimethyl-1H-pyrrol-2-yl)-2-oxoacetyl)-L-allothreonine], in data set [1], the EC50 was 50 to 499 nM. For the same compound, the cytotoxic concentration (CC50) at 7 days in data set [2] is > 30000 nM.
The matching figures for `O=C(N[C@H]1COC[C@@H]1O)C(=O)c1c(Cl)c(C(=O)Nc2ccc(F)c(F)c2)c2n1CCCC2` [Example 518, 2-chloro-N-(3,4-difluorophenyl)-3-(2-(((3S,4R)-4-hydroxytetrahydrofuran-3-yl)amino)-2-oxoacetyl)-5,6,7,8-tetrahdyroindolinzie-1-carboxamide]: 50 to 499 nM and 5000 to 30000 nM.
Consider `Cc1cc(NC(=O)c2c(C)c(C(=O)C(=O)NC3(C(F)(F)F)CC(O)C3)n(C)c2C)ccc1F` (centres unmarked) [Example 288, N-(4-fluoro-3-methylphenyl)-5-(2-((3-hydroxy-1-(trifluoromethyl)cyclobutyl)amino)-2-oxoacetyl)-1,2,4-trimethyl-1H-pyrrole-3-carboxamide], for which the EC50 in data set [1] was < 50 nM. In addition, the CC50 at 7 days in data set [2] is > 30000 nM.
The matching figures for `Cc1cc(NC(=O)c2c(C)c(C(=O)C(=O)N[C@@H]3CCC[C@@H]3O)n(C)c2C)ccc1F` [Example 146, N-(4-fluoro-3-methylphenyl)-5-(2-(((1R,2S)-2-hydroxxycyclopentyl)amino)-2-oxoacetyl)-1,2,4-trimethyl-1H-pyrrole-3-carboxamide]: < 50 nM and > 30000 nM.
The matching figures for `Cc1cc(NC(=O)c2c(C)c(C(=O)C(=O)NC3(CO)CC3)n(C)c2C)ccc1F` [Example 7, N-(4-fluoro-3-methylphenyl)-5-(2-((1-(hydroxymethyl)cyclopropyl)amino)-2-oxoacetyl)-1,2,4-trimethyl-1H-pyrrole-3-carboxamide]: < 50 nM and > 30000 nM.
The matching figures for `Cc1cc(NC(=O)c2c(C)c(C(=O)C(=O)NC3(C(F)(F)F)CCOCC3)n(C)c2C)cc(Cl)n1` [Example 638, N-(2-chloro-6-methylpyridin-4-yl)-1,2,4-trimethyl-5-(2-oxo-2-((4-(trifluoromethyl)etetrahydro-2H-pyran-4-yl)amino)acetyl)-1H-pyrrole-3-carboxamide]: < 50 nM and > 30000 nM.
For the compound `Cc1c(C(=O)Nc2ccnc(F)c2)c(C)n(C)c1C(=O)C(=O)NC1CCSCC1` [Example 272, N-(2-fluoropyridin-4-yl)-1,2,4-trimethyl-5-(2-oxo-2-((tetrahydro-2H-thiopyran-4-yl)amino)acetyl)-1H-pyrrole-3-carboxamide], the concentration giving a half-maximal response (EC50) in data set [1] was < 50 nM. Besides, in data set [2], the CC50 at 7 days was > 30000 nM.
The matching figures for `CC(C)(C)NC(=O)C(=O)c1cc(C(=O)Nc2ccc(F)c(C#N)c2)c2n1CCOC2` [Example 582, 6-(2-(tert-butylamino)-2-oxoacetyl)-N-(3-cyano-4-fluorophenyl)-3,4-dihydro-1H-pyrrolo[2,1-c][1,4]oxazine-8-carboxamide]: > 1000 nM and > 30000 nM.
For `Cc1noc([C@@H](NC(=O)C(=O)c2c(C)c(C(=O)Nc3ccc(F)c(C)c3)c(C)n2C)C(C)C)n1` [Example 145, (S)-N-(4-fluoro-3-methylphenyl)-1,2,4-trimethyl-5-(2-((2-methyl-1-(3-methyl-1,2,4-oxadiazol-5-yl)propyl)amino)-2-oxoacetyl)-1H-pyrrole-3-carboxamide], the concentration for a half-maximal effect (EC50) in data set [1] is < 50 nM. Further, in data set [2], the CC50 at 7 days was > 30000 nM.
The matching figures for `Cc1nnc(C2(NC(=O)C(=O)c3c(C)c(C(=O)Nc4ccc(F)c(C)c4)c(C)n3CCF)CC2)o1` [Example 201, N-(4-fluoro-3-methylphenyl)-1-(2-fluoroethyl)-2,4-dimethyl-5-(2-((1-(5-methyl-1,3,4-oxadiazol-2-yl)cyclopropyl)amino)-2-oxoacetyl)-1H-pyrrole-3-carboxamide]: 50 to 499 nM and > 30000 nM.
The matching figures for `Cc1c(C(=O)Nc2cc(F)c(F)c(F)c2)c(C)n(C)c1C(=O)C(=O)Nc1ccc(F)c(F)c1` [Example 322, 5-(2-((3,4-difluorophenyl)amino)-2-oxoacetyl)-1,2,4-trimethyl-N-(3,4,5-trifluorophenyl)-1H-pyrrole-3-carboxamide]: < 50 nM and 5000 to 30000 nM.
The matching figures for `Cc1cc(NC(=O)c2c(C)c(C(=O)C(=O)NC3(CO)CC(F)(F)C3)n3c2CCCC3)cnc1F` [Example 474, 3-(2-((3,3-difluoro-1-(hydroxymethyl)cyclobutyl)amino)-2-oxoacetyl)-N-(6-fluoro-5-methylpyridin-3-yl)-2-methyl-5,6,7,8-tetrahydroindolizine-1-ccarboxamide]: 500 to 1000 nM and > 30000 nM.
For the compound `COc1c(C(=O)Nc2ccc(F)c(F)c2)c(C)n(C)c1C(=O)C(=O)NC(C)(C)C` [Example 380], the EC50 in data set [1] is < 50 nM. For the same compound, the half-maximal cytotoxic concentration (CC50) at 7 days in data set [2] is > 30000 nM.
As to `O=C(NC1(CO)CC1)C(=O)c1c(Cl)c(C(=O)Nc2ccc(F)c(F)c2)c2n1CCC2` [Example 561, 6-chloro-N-(3,4-difluorohphenyl)-5-(2-((1-(hydroxymethyl)cyclopropyl)amino)-2-oxoacetyl)-2,3-dihydro-1H-pyrrolizine-7-carboxamide], the EC50 in data set [1] was < 50 nM. Also, in data set [2], the half-maximal cytotoxic concentration (CC50) at 7 days is > 30000 nM.
With `Cc1cc(NC(=O)c2c(C)c(C(=O)C(=O)N[C@H]3COC[C@@H]3O)n(CCF)c2C)ccc1F` [Example 130, N-(4-fluoro-3-methylphenyl)-1-(2-fluoroethyl)-5-(2-(((3S,4R)-4-hydroxytetrahydrofuran-3-yl)amino)-2-oxoacetyl)-2,4-dimethyl-1H-pyrrole-3-carboxamide], the EC50 in data set [1] lay in the range of 50 to 499 nM. Also, in data set [2], the CC50 at 7 days is > 30000 nM.
The matching figures for `Cc1c(C(=O)NC2CCCC2)c2n(c1C(=O)C(=O)NC1(CO)CCC1)CCCC2` [Example 746, N-cyclopentyl-3-(2-((1-(hydroxymethyl)cyclobutyl)amino)-2-oxoacetyl)-2-methyl-5,6,7,8-tetrahydroindolizine-1-carboxamide]: 50 to 499 nM and > 30000 nM.
For `Cc1cc(NC(=O)c2c(C)c(C(=O)C(=O)N[C@H]3CC[C@H](O)CC3)n(C)c2C)ccc1F` [Example 246, N-(4-fluoro-3-methylphenyl)-5-(2-(((1r,4r)-4-hydroxycyclohexyl)amino)-2-oxoacetyl)-1,2,4-triemthyl-1H-pyrrole-3-carboxamide], in data set [1], the EC50 is < 50 nM. This compound also displayed a 50% cytotoxic concentration (CC50) at 7 days in data set [2] of 5000 to 30000 nM.
The matching figures for `CC(C)(O)CNC(=O)C(=O)c1c(Cl)c(C(=O)Nc2ccc(F)c(Cl)c2)c2n1CCC2` [Example 557, 6-chloro-N-(3-chloro-4-fluorophenyl)-5-(2-((2-hydroxy-2-methylpropyl)amino)-2-oxoacetyl)-2,3-dihydro-1H-pyrrolizine-7-carboxamide]: < 50 nM and 5000 to 30000 nM.
The matching figures for `Cc1cc(NC(=O)c2c(C)c(C(=O)C(=O)NC3CCN(C4COC4)CC3)n(C)c2C)ccc1F` [Example 652, N-(4-fluoro-3-methylphenyl)-1,2,4-trimethyl-5-(2-((1-(oxetan-3-yl)piperidin-4-yl)amino)-2-oxoacetyl)-1H-pyrrole-3-carboxamide]: < 50 nM and > 30000 nM.
The matching figures for `Cc1cc(NC(=O)c2c(C)c(C(=O)C(=O)N[C@]3(C)C[C@H](O)C3)n(C)c2C)ccc1F` [Example 267, N-(4-fluoro-3-methylphenyl)-5-(2-(((1s,3s)-3-hydroxy-1-methylcyclobutyl)amino)-2-oxoacetyl)-1,2,4-trimethyl-1H-pyrrole-3-carboxamide]: < 50 nM and > 30000 nM.
In the case of `Cc1noc([C@@H](C)NC(=O)C(=O)c2c(Cl)c(C(=O)Nc3ccc(F)c(F)c3)c3n2CCC3)n1` [Example 567, (R)-6-chloro-N-(3,4-difluorophenyl)-5-(2-((1-(3-methyl-1,2,4-oxadiazol-5-yl)ethyl)amino)-2-oxoacetyl)-2,3-dihydro-1H-pyrrolizine-7-carboxamide], in data set [1], the EC50 was < 50 nM. Besides, the CC50 at 7 days in data set [2] was > 30000 nM.
The matching figures for `Cc1c(C(=O)Nc2cc(F)c(F)c(F)c2)c(C)n(C)c1C(=O)C(=O)NC1CCC(F)(F)CC1` [Example 324, 5-(2-((4,4-difluorocyclohexyl)amino)-2-oxoacetyl)-1,2,4-trimethyl-N-(3,4,5-trifluorophenyl)-1H-pyrrole-3-carboxamide]: < 50 nM and 5000 to 30000 nM.
Take `Cc1cc(NC(=O)c2c(C)c(C(=O)C(=O)N[C@H]3CC[C@@H](O)CC3)n(C)c2C)cnc1F` [Example 174, N-(6-fluoro-5-methylpyridin-3-yl)-5-(2-(((1s,4s)-4-hydroxycyclohexyl)amino)-2-oxoacetyl)-1,2,4-trimethyl-1H-pyrrole-3-carboxamide]: the EC50 in data set [1] lay in the range of 50 to 499 nM. In addition, in data set [2], the half-maximal cytotoxic concentration (CC50) at 7 days is > 30000 nM.
Take `Cc1c(C(=O)Nc2ccc(F)c(Cl)c2)c(C)n(C)c1C(=O)C(=O)NC(C)(C)CN1CCOCC1` [Example 332, N-(3-chloro-4-fluorophenyl)-1,2,4-trimethyl-5-(2-((2-methyl-1-morpholinopropan-2-yl)amino)-2-oxoacetyl)-1H-pyrrole-3-carboxamide]: in data set [1], the EC50 is < 50 nM. Besides, in data set [2], the cytotoxic concentration (CC50) at 7 days was > 30000 nM.
